# According to patent publication US5304369A, “Chlorohexidine adduct and method of preparing same” (Ivoclar AG, priority 1991, dated 1994):
# Like-named read-outs stand apart in the source and are kept apart here.
# Tests used:
# Streptococcus mutans [1] = experiment: Agar diffusion test with Streptococcus mutans (inhibiting zone diameters); format: cell-based; settings: for Bactericidal effectiveness (in words): concentrations smaller than or equal to 0.01 wt.-%; for Antibacterial action (in words): 0.003 wt.-%
# Method: For this purpose, culture suspensions of Streptococcus mutans were added to a liquid Agar comprising yeast extract and dextrose. After the Agar plates had solidified, a hole of 10 mm diameter was cut out, into which 0.1 ml of the solution to be tested was poured in each case. After 24 hours of incubation at 37° C., the diameters of the inhibiting zones were measured for each sample, which were duplicated in each case.
# [2] = Side-effects in use (bitter taste, discolorations, irritations of the mucosa)
# [3] = Solubility in common solvents and reactive diluents; format: physicochemical
# Streptococcus mutans [4] = settings: cited from earlier work
# [5] = higher concentrations; cited from earlier work
# [6] = background, cited from earlier work
# [7] = 0.03 wt. %, 0.1 ml in 10 mm hole, 24 hours, 37° C.
smiles,measurement,setting,value
"[H]/N=C(\N/C(=N/[H])NCCCCCCNC(=N)NC(=N)Nc1ccc(Cl)cc1)Nc1ccc(Cl)cc1 [chlorohexidine adduct, chlorohexidine hexahydrofluoride]",Inhibiting zone diameter,"Streptococcus mutans [1]; 0.003 wt. %, 0.1 ml in 10 mm hole, 24 hours, 37° C., * = Not effective, listed as Solution B",12 mm
same,Antibacterial effectiveness (in words),Streptococcus mutans [1]; 0.01 to 0.003 wt.-%,still very high
same,Inhibiting zone diameter,"Streptococcus mutans [1]; 0.01 wt. %, 0.1 ml in 10 mm hole, 24 hours, 37° C., listed as Solution B",15 mm
same,Inhibiting zone diameter,Streptococcus mutans [1]; [7],17 mm
same,Antibacterial effectiveness (in words),Streptococcus mutans [1]; 0.03 wt.-%,comparable with that of chlorohexidine gluconate
same,Antibacterial effectiveness (in words),"Streptococcus mutans [1]; 0.03 wt.-%, listed as adduct according to the invention",completely comparable
same,Bactericidal effectiveness (in words),Streptococcus mutans [1],clearly superior to stannous difluoride
same,"Unwanted side-effects (bitter taste, discolorations of tooth materials, irritations of the mucosa)",[2],no unwanted side-effects
same,Solubility,[3]; Acetone,0.03 wt. %
same,Solubility,[3]; Decandiol dimethacrylate (D3 MA),< 0.005 wt. %
same,Solubility,[3]; Ethanol,0.005 wt. %
same,Solubility,[3]; Ethyl acetate,0.02 wt. %
same,Solubility,[3]; Triethylene glycol dimethacrylate (SR-205),< 0.005 wt. %
same,Solubility,"[3]; Water (pH value 2 to 9.7), read-out: Solubility",300 µg/mL
same,Solubility (in words),[3]; common solvents,quite a low solubility
"[F][Sn][F] [Solution C, stannous difluoride]",Inhibiting zone diameter,"Streptococcus mutans [1]; 0.003 wt. %, 0.1 ml in 10 mm hole, 24 hours, 37° C., * = Not effective",10 mm
same,Antibacterial action (in words),Streptococcus mutans [1],Not effective
same,Antibacterial action (in words),Streptococcus mutans [1]; listed as stannous difluoride,an antibacterial action can no longer be detected
same,Inhibiting zone diameter,"Streptococcus mutans [1]; 0.01 wt. %, 0.1 ml in 10 mm hole, 24 hours, 37° C.",11 mm
same,Inhibiting zone diameter,Streptococcus mutans [1]; [7],20 mm
same,Antibacterial effectiveness (in words),Streptococcus mutans [1]; 0.03 wt.-%,even stronger action
"[H]/N=C(\N/C(=N/[H])NCCCCCCNC(=N)NC(=N)Nc1ccc(Cl)cc1)Nc1ccc(Cl)cc1 [chlorohexidine, 1,6-bis-(N^5-p-chlorophenyl-N'-diguanido)-hexane]",Effectiveness against bacteria of the type Streptococcus mutans (in words),Streptococcus mutans [4],effective
same,Bactericidal effect vis-a-vis Streptococcus mutans (in words),Streptococcus mutans [4]; small concentrations,greatly weakened
same,"Dis-colorations of the tongue, teeth, prostheses and fillings",[5],can lead to unwanted dis-colorations
same,Bactericidal effectiveness (in words),Streptococcus mutans [1],clearly exceeded
[H]/N=C(\N/C(=N/[H])NCCCCCCNC(=N)NC(=N)Nc1ccc(Cl)cc1)Nc1ccc(Cl)cc1 [diacetate],Solubility (in words),[6],sparingly soluble
[H]/N=C(\N/C(=N/[H])NCCCCCCNC(=N)NC(=N)Nc1ccc(Cl)cc1)Nc1ccc(Cl)cc1 [Solution A],Solubility (in words),[6]; listed as digluconate,water-soluble
same,zone of inhibition at 0.003 %,"Streptococcus mutans [1]; Streptococcus mutans, 24 h, 0.003 wt. %, 0.1 ml in 10 mm hole, 24 hours, 37° C., * = Not effective, read-out: Inhibiting zone diameter",11 mm
same,zone of inhibition at 0.01 %,"Streptococcus mutans [1]; Streptococcus mutans, 24 h, 0.01 wt. %, 0.1 ml in 10 mm hole, 24 hours, 37° C., read-out: Inhibiting zone diameter",13 mm
same,zone of inhibition at 0.03 %,"Streptococcus mutans [1]; Streptococcus mutans, 24 h, 0.03 wt. %, 0.1 ml in 10 mm hole, 24 hours, 37° C., read-out: Inhibiting zone diameter",17 mm
